Measured values as given in PMC9968170 (Pharmaceutics, 2023).
Where two headings read alike, the source gives them in different places.

Experiments:
[1] = PK of NOV (oral, given with FUR) in rats; assay type: in vivo, Sprague-Dawley rats; conditions: NOV 20 mg/kg PO; for CL renal: Sprague-Dawley, rat, urine and whole blood, read-out: NOV renal clearance (CLR) (converted)
Experimental: The rats were housed 2–3 per cage in a specific-pathogen-free facility with controlled light (14/10 h, light/dark cycle), temperature (20–26 °C), and humidity (50 ± 20%).
For groups 2 and 4, the rats were fasted between 4 h prior to dosing and 2 h post-dose with free access to water. […] The blood samples (25 µL) were collected in duplicate in 1 mL tubes and mixed with an equal volume of water containing heparin (30 IU/mL containing 0.05% formic acid) at pre-dose, 0.25, 0.5, 0.75, 1, 1.5, 2, 4, and 6 h.
Next, 300 µL of acetonitrile containing FUR-d5 (as internal standard; 300 ng/mL) was added to 50 µL of the calibration curve standards, QC samples, and rat blood samples to precipitate blood proteins. […] One μL of the sample was injected and LC separation was achieved using an Acquity UPLC HSS T3 column (100Å, 1.8 µm, 1 mm × 100 mm) and mobile phase (A: water with 0.1% formic acid and B: acetonitrile with 0.1% formic acid; 50 μL/min flow) with a gradient program: 0.0–1.5 min (5% B), 1.5–3.5 min (5–70% B), 3.5–5 min (70–90% B), 5–7.5 min (90% B), and 7.5–7.6 min (90–5% B), followed by 5% B until 8.5 min. […] The cone voltage (CV) was 25 V.
Similarly, 25 µL of urine sample (diluted 10-fold with water containing 0.1% formic acid) was mixed with 75 µL of acetonitrile containing 100 ng/mL of FUR-d5.
(1) CLR=Ae 0−6 h/AUC0−6 h where, Ae is the cumulative amount of drug excreted unchanged in the urine between 0 to 6 h.

[2] = system: OAT3; set-up: method as in PMID 16489126, PMID 26700956, PMID 19282394; conditions: human OAT3; cited from earlier work
[3] = system: OAT1; set-up: method as in PMID 16489126, PMID 26700956, PMID 19282394; conditions: human OAT1; cited from earlier work
[4] = system: human Bcrp; conditions: cited from earlier work
[5] = FUR alone 5 mg/kg PO
[6] = cited from earlier work
[7] = system: Bcrp; set-up: method as in PMID 31868552; conditions: rats, cited from earlier work

CO[C@@H]1[C@@H](OC(N)=O)[C@@H](O)[C@H](Oc2ccc3c(O)c(NC(=O)c4ccc(O)c(CC=C(C)C)c4)c(=O)oc3c2C)OC1(C)C [NOV, Novobiocin]
AUC and Cmax of NOV, male vs female rats [1]: comparable
CL renal ([1]; female rats): 0.00833 mL/min
CL renal ([1]; male rats): 0.0383 mL/min
Food-effect on the PK of NOV ([1]; fed vs fasted state): no food-effect
IC50 [2]: 5 µM
IC50 [3]: 34.8 µM

NS(=O)(=O)c1cc(C(=O)O)c(NCc2ccco2)cc1Cl [FUR, Furosemide]
FUR CLR, male compared to female rats [5]: 2 fold
Fraction excreted unchanged in urine, fe [6]: ≈ 65%

O=C(O)c1cc(/N=N/c2ccc(S(=O)(=O)Nc3ccccn3)cc2)ccc1O [sulfasalazine]
Effect of NOV on systemic clearance of sulfasalazine ([7]; intravenous dosing): not influenced
Increase of sulfasalazine AUC with NOV coadministration ([7]; oral administration): 3.2 fold
Increase of sulfasalazine Cmax with NOV coadministration ([7]; oral administration): 5.9 fold
